Measurements: patent US20250002533A1, “PEPTIDE AND ITS USES” (INSTYTUT MEDYCYNY DOSW[…] […].MIROSLAWA MOSS[…] AKADEMII …, priority 2021, published 2025)

Assays:
rats = conditions: cited from earlier work
mu opioid receptor (MOR) = conditions: depending on the route of administration and the assay measuring analgesia; cited from earlier work
[1] = cited from earlier work
acute pain model in rats = experiment: Analgesic effect (% MPE) after subarachnoid (i.t.) administration in an acute pain model in rats; format: in vivo, rat
[2] = system: rats with induced neuropathic pain; experiment: Chronic constriction injury (CCI) neuropathic pain model, von Frey test, central (subarachnoid) administration; format: in vivo, rat
Protocol: In the next step of the study, the peptide was administered by the central (subarachnoid) route to rats with induced neuropathic pain (the model of neuropathic pain of loose ligation of the sciatic nerve according to Bennett [Bennett and Xie, 1988]) according to the method described by Yaksh & Rudy (Yaksh T. R., Rudy T. A., Physiol Behav. 17:1031-1036 (1976). In the first step, the level of pain experienced by rats with chronic pain was determined in comparison to healthy rats. The results of the test are shown in FIG. 5. The behavioral test consisted of measuring the level of allodynia on the pelvic, “sick” limb, where the time or strength of the irritating stimulus acting on the bottom of the foot were tested.
In the main test of the analgesic effect of the tested peptide, a single dose of the peptide was administered by the central route at predetermined time intervals. To that end, the compound was dissolved in physiological saline solution and administered by a Hamilton syringe to the rats on days 0, 4, 7, 14 of the experiment. Earlier studies let to establish that in our case, the effective dose of peptide for rats is 2.0 nmol/kg.
In the treatment of chronic pain, pharmacotherapy is based on repeated administration of the active substance, which is often associated with the occurrence of the tolerance and undesired side effects. Therefore, in the next step of the study, the analgesic compound was administered to the rats daily for a period of 14 days, FIG. 7.

[3] = daily i.t. administration for 14 days

C[C@@H](NC(=O)[C@@H](N)Cc1ccc(O)cc1)C(=O)NCC(=O)N[C@@H](Cc1ccccc1)C(=O)NNC(=O)[C@H](Cc1ccccc1)NC(=O)CNC(=O)[C@@H](C)NC(=O)[C@@H](N)Cc1ccc(O)cc1 [biphalin]
effect after intravenous administration relative to morphine (rats; animals, intravenous): corresponds to doses of morphine | activity relative to morphine after administration into the subarachnoid space (rats; rats, intrathecal): more than one thousand times more active than morphine

C[C@@H](NC(=O)[C@@H](N)Cc1ccc(O)cc1)C(=O)N[C@@H](Cc1ccccc1)C(=O)NCC(=O)N[C@@H](Cc1ccc(O)cc1)C(=O)N1CCC[C@H]1C(=O)N[C@@H](CO)C(N)=O [dermorphin, Dermorphin]
potency relative to morphine (mu opioid receptor (MOR)): 750-2200 times | known stability in human or rat serum [1]: 170 to 190 min

CN1CC[C@]23c4c5ccc(O)c4O[C@H]2[C@@H](O)C=C[C@H]3[C@H]1C5 [morphine, reference compound]
equipotent dose relative to that of the peptide according to the invention (acute pain model in rats; i.t.): approximately 100 times | dose producing an effect similar to the peptide according to the invention (acute pain model in rats; i.t., equipotent dose): 32.0 nmol/kg

C[C@@H](NC(=O)[C@H](CO)NC(=O)[C@@H]1CCCN1C(=O)[C@H](Cc1ccc(O)cc1)NC(=O)CNC(=O)[C@H](Cc1ccccc1)NC(=O)[C@@H](C)NC(=O)[C@@H](N)Cc1ccc(O)cc1)C(=O)N[C@@H](Cc1ccccc1)C(=O)O [peptide according to the invention, H2N-Tyr-D-Ala-Gly-Phe-Gly-Tyr-Pro-Ser-D-Ala-Phe-OH]
analgesic effect at the threshold dose (acute pain model in rats; i.t., 0.004 nmol/kg): active at a low but noticeable level | duration of analgesic effect (acute pain model in rats; i.t., 0.04 nmol/kg): 30 min | duration of analgesic effect (acute pain model in rats; i.t., 0.08 nmol/kg): 60 min | activity in 60 and 120 min (acute pain model in rats; i.t., 0.08 nmol/kg and 0.4 nmol/kg, 60 and 120 min): 60-70 % MPE | analgesic potency compared to morphine (acute pain model in rats; i.t., FIGS. 1-3): definitely more potent than morphine | duration of maximum effects (acute pain model in rats; i.t., highest doses 0.08 nmol/kg and 0.4 nmol/kg): up to 30 min | analgesic effect compared to dermorphin at the lower dose (acute pain model in rats; subarachnoid, 0.04 nmol/kg, first 30 minutes): slightly higher in the first 30 minutes than for dermorphin | analgesic effect compared to dermorphin at the higher dose (acute pain model in rats; subarachnoid, 0.4 nmol/kg, first 30 minutes): equipotent for the first 30 minutes | analgesic potency compared to dermorphin (acute pain model in rats; subarachnoid, equivalent doses 0.04 and 0.4 nmol/kg): as potent as dermorphin | value of MPE maintained for 120 minutes after administration (acute pain model in rats; subarachnoid, higher dose 0.4 nmol/kg, 120 min): 40% | development of tolerance [2, 3]: did not develop tolerance | general condition / undesired side effects (weight loss, hyperalgesia to touch, vocalization, hair shedding) [2, 3]: in good general physical condition | hyperalgesia after long-term administration [2, 3]: did not induce hyperalgesia | analgesic effect, daily administration, fourteenth day ([2]; daily i.t. administration, day 14, versus control group): did not induce its analgesic effect | analgesic effect, daily administration, days 4 and 7 ([2]; daily i.t. administration, days 4 and 7, versus untreated group): highly analgesic | effective dose of peptide for rats ([2]; rats, CCI model, central route): 2.0 nmol/kg | analgesic effect, single dose ([2]; single dose i.t. on days 0, 4, 7, 14, result on days 4, 7 and 14 of pain induction, 2.0 nmol/kg): highly analgesic
